For 33 molecules, IC50 results are on record in US10179767B2 (GENENTECH, INC., priority 2015, dated 2019).

Structures are written as SMILES.

T1 sequence (Q15858 whole entry): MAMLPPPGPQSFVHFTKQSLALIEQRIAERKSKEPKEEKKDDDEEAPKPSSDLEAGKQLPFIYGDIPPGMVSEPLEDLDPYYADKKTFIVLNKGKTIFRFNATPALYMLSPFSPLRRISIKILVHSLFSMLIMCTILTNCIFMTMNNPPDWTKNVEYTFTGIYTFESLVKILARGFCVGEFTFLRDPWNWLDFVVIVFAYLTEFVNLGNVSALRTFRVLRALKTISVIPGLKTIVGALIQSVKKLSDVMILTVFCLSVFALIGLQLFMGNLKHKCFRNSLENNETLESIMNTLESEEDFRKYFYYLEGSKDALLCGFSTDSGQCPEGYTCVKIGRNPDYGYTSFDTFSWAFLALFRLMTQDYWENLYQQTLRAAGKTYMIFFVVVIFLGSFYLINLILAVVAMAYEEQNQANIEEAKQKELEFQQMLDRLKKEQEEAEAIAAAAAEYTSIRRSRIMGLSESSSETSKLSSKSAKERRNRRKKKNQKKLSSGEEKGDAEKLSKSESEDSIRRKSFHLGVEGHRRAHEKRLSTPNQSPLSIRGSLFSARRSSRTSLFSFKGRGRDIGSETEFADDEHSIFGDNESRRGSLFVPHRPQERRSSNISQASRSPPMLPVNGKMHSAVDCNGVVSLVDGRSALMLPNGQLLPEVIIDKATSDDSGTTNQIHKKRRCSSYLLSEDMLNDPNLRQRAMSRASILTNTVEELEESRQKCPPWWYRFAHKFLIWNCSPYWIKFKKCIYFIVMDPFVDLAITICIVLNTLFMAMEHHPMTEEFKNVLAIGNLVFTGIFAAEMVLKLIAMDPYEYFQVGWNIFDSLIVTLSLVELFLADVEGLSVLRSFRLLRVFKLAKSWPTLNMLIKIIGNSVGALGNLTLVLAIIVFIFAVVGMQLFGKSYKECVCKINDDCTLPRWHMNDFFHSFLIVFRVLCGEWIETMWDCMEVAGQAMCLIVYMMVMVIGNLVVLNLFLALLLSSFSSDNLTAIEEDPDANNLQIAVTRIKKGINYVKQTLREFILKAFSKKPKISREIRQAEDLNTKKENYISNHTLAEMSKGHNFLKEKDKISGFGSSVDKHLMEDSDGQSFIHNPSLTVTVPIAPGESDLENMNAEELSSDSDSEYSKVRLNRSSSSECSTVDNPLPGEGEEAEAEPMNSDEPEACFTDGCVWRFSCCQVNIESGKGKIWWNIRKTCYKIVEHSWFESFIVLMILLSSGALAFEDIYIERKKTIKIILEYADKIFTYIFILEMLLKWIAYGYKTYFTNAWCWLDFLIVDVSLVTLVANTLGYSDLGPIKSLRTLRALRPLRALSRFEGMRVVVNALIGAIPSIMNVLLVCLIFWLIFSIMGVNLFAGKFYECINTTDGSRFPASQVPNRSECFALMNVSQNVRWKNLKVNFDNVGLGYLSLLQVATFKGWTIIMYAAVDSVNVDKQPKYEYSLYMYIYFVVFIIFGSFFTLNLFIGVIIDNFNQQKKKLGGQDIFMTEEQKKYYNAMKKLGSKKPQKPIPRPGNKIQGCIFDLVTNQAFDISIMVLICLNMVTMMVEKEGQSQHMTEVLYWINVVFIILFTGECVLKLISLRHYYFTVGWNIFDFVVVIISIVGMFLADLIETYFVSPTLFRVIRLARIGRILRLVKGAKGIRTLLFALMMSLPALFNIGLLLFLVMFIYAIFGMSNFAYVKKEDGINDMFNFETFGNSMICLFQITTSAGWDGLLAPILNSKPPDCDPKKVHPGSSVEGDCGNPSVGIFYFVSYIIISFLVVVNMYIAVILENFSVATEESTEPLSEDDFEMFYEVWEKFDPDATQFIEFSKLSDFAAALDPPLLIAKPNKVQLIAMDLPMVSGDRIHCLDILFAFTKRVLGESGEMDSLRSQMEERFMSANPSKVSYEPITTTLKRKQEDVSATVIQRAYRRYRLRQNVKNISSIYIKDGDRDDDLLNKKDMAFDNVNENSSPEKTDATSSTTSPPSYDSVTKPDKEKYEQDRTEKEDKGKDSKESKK
T1 sequence (Q07699 19-218 partner): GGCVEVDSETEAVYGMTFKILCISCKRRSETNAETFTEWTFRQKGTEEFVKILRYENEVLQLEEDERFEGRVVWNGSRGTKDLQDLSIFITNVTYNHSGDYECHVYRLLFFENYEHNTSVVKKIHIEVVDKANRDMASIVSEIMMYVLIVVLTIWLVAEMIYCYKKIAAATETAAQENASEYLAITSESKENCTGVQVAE

This assay concerns the target T1, hNav1.7 (Homo sapiens, UniProt Q15858).
T1 construct: expressed in transfected cells
The assay is described as follows: Tritiated sulfonamide binding to membranes from cells expressing hNav1.7 and the β1 subunit (Nav 1.7 ligand binding assay, competitive). The conditions noted are these: competition with 100 pM [3H]compound, room temperature, 18 h. On the procedure: Tritiated Sulfonamide Binding to Membranes Isolated from Cells that Heterologously Express hNav1.7 and the β1 Subunit
Preparation of membranes containing recombinantly expressed sodium channels: Frozen recombinant cell pellets were thawed on ice and diluted to 4 times the cell pellet weight with ice cold 50 mM Tris HCl, pH 7.4 buffer. The cell suspensions were homogenized on ice using a motorized glass dounce homogeniser. Homogenates were further diluted 8.4 times with ice cold 50 mM Tris HCl, pH 7.4 buffer and then centrifuged at 200×g at 4° C. for 15 min. The supernatants were collected and centrifuged at 10000×g at 4° C. for 50 min. The pellets were then re-suspended in 100 mM NaCl, 20 mM Tris HCl, pH 7.4 buffer containing 1% v/v protease inhibitors (Calbiochem) and re-homogenized on ice. The homogenized membranes were then processed through a syringe equipped with a 26 gauge needle. Protein concentrations were determined by Bradford Assay and the membranes were stored at −80° C.
Radioligand Binding Studies:
Saturation experiments. A competitive NaV1.7 inhibitor having a methyl group was tritiated. Three tritiums were incorporated in place of methyl hydrogens to generate [^3H]compound. Binding of this radioligand was preformed in 5 mL borosilicate glass test tubes at room temperature. Binding was initiated by adding membranes to increasing concentrations of [^3H]compound in 100 mM NaCl, 20 mM Tris HCl, pH 7.4 buffer containing 0.01% w/v bovine serum albumin (BSA) for 18 h. Non-specific binding was determined in the presence of 1 μM unlabelled compound. After 18 h, the reactants were filtered through GF/C glass fiber filters presoaked in 0.5% w/v polyethylene imine Filters were washed with 15 mL ice cold 100 mM NaCl, 20 mM Tris HCl, pH7.4 buffer containing 0.25% BSA to separate bound from free ligand. [^3H]compound bound to filters was quantified by liquid scintillation counting.
Competitive Binding Experiments:
Binding reactions were preformed in 96-well polypropylene plates at room temperature for 18 h. In 360 μL, membranes were incubated with 100 pM [^3H]compound and increasing concentrations of Test Compound. Non-specific binding was defined in the presence of 1 μM unlabelled compound. Reactions were transferred and filtered through 96-well glass fiber/C filter plates presoaked with 0.5% polyethylene imine. The filtered reactions were washed 5 times with 200 μL ice cold buffer containing 0.25% BSA. Bound radioactivity was determined by liquid scintillation counting. Data Analysis: For saturation experiments, non-specific binding was subtracted from total binding to provide specific binding and these values were recalculated in terms of pmol ligand bound per mg protein. Saturation curves were constructed and dissociation constants were calculated using the single site ligand binding model: Beq=(Bmax*X)/(X+Kd), where Beq is the amount of ligand bound at equilibrium, Bmax is the maximum receptor density, Kd is the dissociation constant for the ligand, and X is the free ligand concentration. For competition studies percent inhibition was determined and IC50 values were calculated using a 4 parameter logistic model (% inhibition=(A+((B−A)/(1+((x/C)⨣D)))) using XLfit, where A and B are the maximal and minimum inhibition respectively, C is the IC50 concentration and D is the (Hill) slope.
`CS(=O)(=O)NC(=O)c1cc(C2CC2)c(O[C@H]2CN(Cc3ccc(F)cc3Cl)CC[C@@H]2F)cc1F` (relative stereo) [Example 45, trans 4-((1-(2-chloro-4-fluorobenzyl)-4-fluoropiperidin-3-yl)oxy)-5-cyclopropyl-2-fluoro-N-(methylsulfonyl)benzamide]: the IC50 amounted to 83 nM.
For `C[C@H](c1cc(Cl)cc(Cl)c1C#N)N1CCC(COc2cc(F)c(C(=O)NS(C)(=O)=O)cc2C2CC2)CC1` (single isomer, unassigned) [Example 1] the value was 8.8 nM; for `C[C@@H](c1cc(Cl)cc(Cl)c1C#N)N1CCC(COc2cc(F)c(C(=O)NS(C)(=O)=O)cc2C2CC2)CC1` (single isomer, unassigned) [Example 2], 5.5 nM.
As to `COC1(COc2cc(F)c(C(=O)NS(C)(=O)=O)cc2C2CC2)CCN([C@@H](C)c2cc(Cl)cc(Cl)c2)CC1` (single isomer, unassigned) [Example 5], the IC50 is 9.2 nM.
For `C[C@H](c1cc(C(F)(F)F)cc(Cl)c1F)N1CCC(C#N)(COc2cc(F)c(C(=O)NS(C)(=O)=O)cc2C2CC2)CC1` (single isomer, unassigned) [Example 8] the value was 9.8 nM.
Take `CC(C)(C#N)[C@H](c1cc(Cl)cc(Cl)c1)N1CCC(COc2cc(F)c(C(=O)NS(C)(=O)=O)cc2C2CC2)CC1` (single isomer, unassigned) [Example 11]: the IC50 amounted to 4.2 nM.
For `CC(C)(C#N)[C@@H](c1cc(Cl)cc(Cl)c1)N1CCC(COc2cc(F)c(C(=O)NS(C)(=O)=O)cc2C2CC2)CC1` (single isomer, unassigned) [Example 12] the value was 3.9 nM; for `COc1c(Cl)cc(Cl)cc1[C@@H](C)N1CCC(COc2cc(F)c(C(=O)NS(C)(=O)=O)cc2C2CC2)CC1` (single isomer, unassigned) [Example 15], 5.1 nM.
Take `COc1c(Cl)cc(Cl)cc1[C@H](C)N1CCC(COc2cc(F)c(C(=O)NS(C)(=O)=O)cc2C2CC2)CC1` (single isomer, unassigned) [Example 16]: the IC50 is 5.7 nM.
For `C[C@@H](c1ccc(F)cc1Cl)N1CCC(F)(COc2cc(F)c(C(=O)NS(C)(=O)=O)cc2C2CC2)CC1` (single isomer, unassigned) [Example 18] the value was 10 nM; for `C[C@H](c1ccc(F)cc1Cl)N1CCC(F)(COc2cc(F)c(C(=O)NS(C)(=O)=O)cc2C2CC2)CC1` (single isomer, unassigned) [Example 19], 6 nM.
As for `C[C@@H](c1ccc(Cl)c(Cl)c1)N1CCC(F)(COc2cc(F)c(C(=O)NS(C)(=O)=O)cc2C2CC2)CC1` (single isomer, unassigned) [Example 22], the figure is 5.6 nM.
For `C[C@H](c1ccc(Cl)c(Cl)c1)N1CCC(F)(COc2cc(F)c(C(=O)NS(C)(=O)=O)cc2C2CC2)CC1` (single isomer, unassigned) [Example 23], the half-maximal inhibitory concentration (IC50) was 6.4 nM.
As for `C[C@@H](c1cc(F)cc(Cl)c1)N1CCC(F)(COc2cc(F)c(C(=O)NS(C)(=O)=O)cc2C2CC2)CC1` (single isomer, unassigned) [Example 24], the figure is 4.1 nM.
On to `C[C@H](c1cc(F)cc(Cl)c1)N1CCC(F)(COc2cc(F)c(C(=O)NS(C)(=O)=O)cc2C2CC2)CC1` (single isomer, unassigned) [Example 25], for which the IC50 is 2 nM.
For `C[C@@H](c1ccc(F)c(Cl)c1)N1CCC(F)(COc2cc(F)c(C(=O)NS(C)(=O)=O)cc2C2CC2)CC1` (single isomer, unassigned) [Example 26] the value was 4.7 nM; for `C[C@H](c1ccc(F)c(Cl)c1)N1CCC(F)(COc2cc(F)c(C(=O)NS(C)(=O)=O)cc2C2CC2)CC1` (single isomer, unassigned) [Example 27], 8.6 nM; for `CCS(=O)(=O)NC(=O)c1cc(C2CC2)c(OCC2CCN([C@@H](C)c3cc(Cl)cc(Cl)c3F)CC2)cc1F` (single isomer, unassigned) [Example 32], 5.1 nM.
For `CCS(=O)(=O)NC(=O)c1cc(C2CC2)c(OCC2CCN([C@H](C)c3cc(Cl)cc(Cl)c3F)CC2)cc1F` (single isomer, unassigned) [Example 33] the value was 2.4 nM; for `CS(=O)(=O)NC(=O)c1cc(C2CC2)c(OCC2CCN([C@H](c3cc(Cl)cc(Cl)c3)C3COC3)CC2)cc1F` (single isomer, unassigned) [Example 34], 9.9 nM.
As for `CS(=O)(=O)NC(=O)c1cc(C2CC2)c(OCC2CCN([C@@H](c3cc(Cl)cc(Cl)c3)C3COC3)CC2)cc1F` (single isomer, unassigned) [Example 35], the figure is 8.2 nM; as for `C[C@@H](c1ccc(F)c(Cl)c1)N1CCC(COc2cc(F)c(C(=O)NS(C)(=O)=O)cc2C2CC2)CC1` (single isomer, unassigned) [Example 36], 6 nM.
Take `C[C@H](c1cc(Cl)c(F)c(Cl)c1)N1CCC(COc2cc(F)c(C(=O)NS(C)(=O)=O)cc2C2CC2)CC1` (single isomer, unassigned) [Example 37]: the IC50 came to 3 nM.
As for `C[C@@H](c1cc(Cl)c(F)c(Cl)c1)N1CCC(COc2cc(F)c(C(=O)NS(C)(=O)=O)cc2C2CC2)CC1` (single isomer, unassigned) [Example 38], the IC50 worked out at 3.1 nM.
In turn, `C[C@H](c1ccc(Cl)c(F)c1)N1CCC(COc2cc(F)c(C(=O)NS(C)(=O)=O)cc2C2CC2)CC1` (single isomer, unassigned) [Example 39] returned an IC50 of 4.6 nM.
For `C[C@@H](c1ccc(Cl)c(F)c1)N1CCC(COc2cc(F)c(C(=O)NS(C)(=O)=O)cc2C2CC2)CC1` (single isomer, unassigned) [Example 40] the value was 6.6 nM.
As for `CS(=O)(=O)NC(=O)c1cc(C2CC2)c(OCC2CCN(Cc3cc(C(F)(F)F)cc(Cl)c3C#N)CC2)cc1F` [Example 3, 4-((1-(3-chloro-2-cyano-5-(trifluoromethyl)benzyl)piperidin-4-yl)methoxy)-5-cyclopropyl-2-fluoro-N-(methylsulfonyl)benzamide], the figure is 4.5 nM.
`CS(=O)(=O)NC(=O)c1cc(C2CC2)c(OCC2CCN(Cc3cc(Cl)cc(C(F)(F)F)c3C#N)CC2)cc1F` [Example 4, 4-((1-(5-Chloro-2-cyano-3-(trifluoromethyl)benzyl)piperidin-4-yl)methoxy)-5-cyclopropyl-2-fluoro-N-(methylsulfonyl)benzamide] registered an IC50 of 6.6 nM.
For `CS(=O)(=O)NC(=O)c1cc(C2CC2)c(OCC2(O)CCN(Cc3cc(Cl)cc(Cl)c3)CC2)cc1F` [Example 6, 5-Cyclopropyl-4-((1-(3,5-dichlorobenzyl)-4-hydroxypiperidin-4-yl)methoxy)-2-fluoro-N-(methylsulfonyl)benzamide] the value was 10 nM; for `COC1(COc2cc(F)c(C(=O)NS(C)(=O)=O)cc2C2CC2)CCN(Cc2cc(C(F)(F)F)cc(Cl)c2F)CC1` [Example 7, 4-((1-(3-Chloro-2-fluoro-5-(trifluoromethyl)benzyl)-4-methoxypiperidin-4-yl)methoxy)-5-cyclopropyl-2-fluoro-N-(methylsulfonyl)benzamide], 7.9 nM; for `COC1(COc2cc(F)c(C(=O)NS(=O)(=O)C3CC3)cc2C2CC2)CCN(Cc2cc(Cl)cc(Cl)c2)CC1` [Example 9, 5-Cyclopropyl-N-(cyclopropylsulfonyl)-4-((1-(3,5-dichlorobenzyl)-4-methoxypiperidin-4-yl)methoxy)-2-fluorobenzamide], 5.7 nM.
For `CCS(=O)(=O)NC(=O)c1cc(C2CC2)c(OCC2(OC)CCN(Cc3cc(Cl)cc(Cl)c3)CC2)cc1F` [Example 10, 5-Cyclopropyl-4-((1-(3,5-dichlorobenzyl)-4-methoxypiperidin-4-yl)methoxy)-N-(ethylsulfonyl)-2-fluorobenzamide] the value was 9 nM; for `CCS(=O)(=O)NC(=O)c1cc(C2CC2)c(OCC2CCN(Cc3cc(Cl)cc(Cl)c3OC)CC2)cc1F` [Example 13, 5-Cyclopropyl-4-((1-(3,5-dichloro-2-methoxybenzyl)piperidin-4-yl)methoxy)-N-(ethylsulfonyl)-2-fluorobenzamide], 4.1 nM.

One may read the IC50 as the midpoint of a concentration-inhibition curve. Read a high IC50 as lower potency.
